The target in the experiment is GST-tagged-Wee1 kinase (Homo sapiens, UniProt P30291). Description: Wee1 time-resolved fluorescence equilibrium binding assay (displacement of Oregon Green-labeled ATP-competitive kinase probe). As to the method:
Wee1 kinase was assayed using a time-resolved fluorescence equilibrium binding assay monitoring displacement of a rapidly reversible Oregon Green-labeled ATP-competitive kinase probe (N-(2-(2-(2-(4-(4-(5-chloro-4-(2-(1-hydroxycyclobutyl)thiazol-5-yl)-1H-pyrrolo[2,3-b]pyridin-2-yl)phenyl)piperazin-1-yl)ethoxy)ethoxy)ethyl)-2′,7′-difluoro-3′,6′-dihydroxy-3-oxo-3H-spiro[isobenzofuran-1,9′-xanthene]-5-carboxamide) by competitive Wee1 inhibitors.
Chain of GST-tagged-Wee1 kinase (P30291 whole entry): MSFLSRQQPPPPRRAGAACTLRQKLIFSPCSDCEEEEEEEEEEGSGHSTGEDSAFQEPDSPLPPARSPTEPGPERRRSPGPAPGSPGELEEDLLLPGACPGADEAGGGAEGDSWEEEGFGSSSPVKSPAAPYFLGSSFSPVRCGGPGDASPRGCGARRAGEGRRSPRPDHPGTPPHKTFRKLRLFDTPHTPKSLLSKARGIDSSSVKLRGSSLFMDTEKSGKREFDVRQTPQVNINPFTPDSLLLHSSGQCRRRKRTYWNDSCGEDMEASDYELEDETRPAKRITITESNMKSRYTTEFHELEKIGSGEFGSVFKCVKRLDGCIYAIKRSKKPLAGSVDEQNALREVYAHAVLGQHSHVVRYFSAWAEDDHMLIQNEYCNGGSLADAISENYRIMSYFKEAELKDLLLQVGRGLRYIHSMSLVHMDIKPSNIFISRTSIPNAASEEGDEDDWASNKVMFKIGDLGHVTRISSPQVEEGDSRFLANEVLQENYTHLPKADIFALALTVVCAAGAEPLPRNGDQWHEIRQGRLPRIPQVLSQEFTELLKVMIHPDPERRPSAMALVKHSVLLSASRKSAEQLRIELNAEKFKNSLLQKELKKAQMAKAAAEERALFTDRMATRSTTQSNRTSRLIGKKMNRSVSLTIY
For `CC(O)Cn1nc(-c2ccccn2)c2nc(Nc3ccc(N4CCNCC4)cc3)ncc2c1=O` (centres unmarked) [Example 289, 6-(2-hydroxypropyl)-2-{[4-(piperazin-1-yl)phenyl]amino}-8-(pyridin-2-yl)pyrimido[4,5-d]pyridazin-5(6H)-one], the Ki (usually a dissociation constant, usually derived from enzyme kinetics or from competition with a known ligand) is 81 nM.
On to `Cc1nn(-c2c(Cl)cncc2Cl)c(=O)c2cnc(Nc3ccc4c(c3)CNCC43CC3)nc12` [Example 447, 6-(3,5-dichloropyridin-4-yl)-2-(2′,3′-dihydro-1′H-spiro[cyclopropane-1,4′-isoquinolin]-7′-ylamino)-8-methylpyrimido[4,5-d]pyridazin-5(6H)-one], for which the Ki amounted to 0.4 nM.
As for `CCC(O)(CC)c1cccc(-c2nn(-c3c(Cl)cccc3Cl)c(=O)c3cnc(Nc4ccc(N5CCN(C)CC5)cc4)nc23)n1` [Example 176, 6-(2,6-dichlorophenyl)-8-[6-(3-hydroxypentan-3-yl)pyridin-2-yl]-2-{[4-(4-methylpiperazin-1-yl)phenyl]amino}pyrimido[4,5-d]pyridazin-5(6H)-one], the inhibition constant (Ki) was found to be 36 nM.
Take `CN1CCN(c2ccc(Nc3ncc4c(=O)n(-c5ccccc5Cl)nc(-c5cccc(F)c5)c4n3)cc2)CC1` [Example 83, 6-(2-chlorophenyl)-8-(3-fluorophenyl)-2-{[4-(4-methylpiperazin-1-yl)phenyl]amino}pyrimido[4,5-d]pyridazin-5(6H)-one]: affinity was put at a Ki of 0.2 nM.
For `C=CCn1nc(-c2ccco2)c2nc(Nc3ccc4c(c3)CN(C)CC4)ncc2c1=O` [Example 258, 8-(furan-2-yl)-2-[(2-methyl-1,2,3,4-tetrahydroisoquinolin-7-yl)amino]-6-(prop-2-en-1-yl)pyrimido[4,5-d]pyridazin-5(6H)-one], the Ki is 2 nM.
`CC(=O)N1Cc2cc(Nc3ncc4c(=O)n(-c5c(Cl)cccc5Cl)nc(C)c4n3)ccc2C2(CC2)C1` [Example 417, 2-[(2′-acetyl-2′,3′-dihydro-1′H-spiro[cyclopropane-1,4′-isoquinolin]-7′-yl)amino]-6-(2,6-dichlorophenyl)-8-methylpyrimido[4,5-d]pyridazin-5(6H)-one]: the affinity corresponds to a Ki of 0.31 nM.
With `CN1CCN(c2ccc(Nc3ncc4c(=O)n(CC(F)(F)F)nc(CCc5ccccc5)c4n3)cc2)CC1` [Example 10, 2-{[4-(4-methylpiperazin-1-yl)phenyl]amino}-8-(2-phenylethyl)-6-(2,2,2-trifluoroethyl)pyrimido[4,5-d]pyridazin-5(6H)-one], the Ki was above 3140 nM.
Take `CN1CCN(c2ccc(Nc3ncc4c(=O)n(-c5ccccc5Cl)nc(-c5ccccn5)c4n3)cc2)CC1` [Example 60, 6-(2-chlorophenyl)-2-{[4-(4-methylpiperazin-1-yl)phenyl]amino}-8-(pyridin-2-yl)pyrimido[4,5-d]pyridazin-5(6H)-one]: affinity was put at a Ki of 1 nM.
Turning to `Cc1nn(-c2ncccc2Cl)c(=O)c2cnc(Nc3ccc4c(c3)CN(C)CC4(C)C)nc12` [Example 365, 6-(3-chloropyridin-2-yl)-8-methyl-2-[(2,4,4-trimethyl-1,2,3,4-tetrahydroisoquinolin-7-yl)amino]pyrimido[4,5-d]pyridazin-5(6H)-one], the affinity, expressed as Ki, was 2.9 nM.
The figure for `Cn1cnc(-c2nn(-c3ncccc3Cl)c(=O)c3cnc(Nc4ccc5c(c4)CNCC54CC4)nc23)c1` [Example 352, 6-(3-chloropyridin-2-yl)-2-(2′,3′-dihydro-1′H-spiro[cyclopropane-1,4′-isoquinolin]-7′-ylamino)-8-(1-methyl-1H-imidazol-4-yl)pyrimido[4,5-d]pyridazin-5(6H)-one] is 12 nM.
Turning to `CCCc1nn(-c2ccccc2Cl)c(=O)c2cnc(Nc3ccc(N4CCN(C)CC4)cc3)nc12` [Example 25, 6-(2-chlorophenyl)-2-{[4-(4-methylpiperazin-1-yl)phenyl]amino}-8-propylpyrimido[4,5-d]pyridazin-5(6H)-one], the affinity, expressed as Ki, was 1 nM.

The values are drawn from patent US8796289B2 (AbbVie Inc., priority 2011, dated 2014).
